In brackets after ≈: the same amount, converted by molar mass. Activity calls are given as the source filed them. No cut-off for these calls is given here.
Assays:
Escherichia coli [1] = assay: Antibacterial activity against Escherichia coli 10675 assessed as inhibition of bacterial growth incubated for 16 to 20 hrs; assay type: functional; conditions: time 16-20 hrs
Enterococcus faecium [2] = assay: Bactericidal activity against Enterococcus faecium 10067 assessed as inhibition of bacterial growth incubated for 16 to 20 hrs in presence of human serum; assay type: functional; conditions: time 16-20 hrs
Vibrio vulnificus [3] = assay: Bactericidal activity against Vibrio vulnificus 204 assessed as inhibition of bacterial growth incubated for 16 to 20 hrs in presence of human serum; assay type: functional; conditions: time 16-20 hrs
Klebsiella pneumoniae [4] = assay: Antibacterial activity against Klebsiella pneumoniae TL 297 assessed as inhibition of bacterial growth incubated for 16 to 20 hrs in presence of human serum; assay type: functional; conditions: time 16-20 hrs
Pseudomonas aeruginosa [5] = assay: Antibacterial activity against Pseudomonas aeruginosa 19660 assessed as inhibition of bacterial growth incubated for 16 to 20 hrs in presence of human serum; assay type: functional; conditions: time 16-20 hrs
Escherichia coli [6] = assay: Antibacterial activity against Escherichia coli 10675 assessed as inhibition of bacterial growth incubated for 16 to 20 hrs in presence of human serum; assay type: functional; conditions: time 16-20 hrs
Enterococcus faecalis [7] = assay: Antibacterial activity against Enterococcus faecalis 10066 assessed as inhibition of bacterial growth incubated for 16 to 20 hrs; assay type: functional; conditions: time 16-20 hrs
Acinetobacter baumannii [8] = assay: Antibacterial activity against Acinetobacter baumannii 10591 assessed as inhibition of bacterial growth incubated for 16 to 20 hrs; assay type: functional; conditions: time 16-20 hrs
Vibrio vulnificus [9] = assay: Antibacterial activity against Vibrio vulnificus 204 assessed as inhibition of bacterial growth incubated for 16 to 20 hrs; assay type: functional; conditions: time 16-20 hrs
Pseudomonas aeruginosa [10] = assay: Bactericidal activity against Pseudomonas aeruginosa 19660 assessed as inhibition of bacterial growth incubated for 16 to 20 hrs in presence of human serum; assay type: functional; conditions: time 16-20 hrs
Salmonella typhimurium [11] = assay: Antibacterial activity against Salmonella typhimurium DT104 assessed as inhibition of bacterial growth incubated for 16 to 20 hrs; assay type: functional, Salmonella enterica subsp. enterica serovar Typhimurium; conditions: Salmonella enterica, time 16-20 hrs
Klebsiella pneumoniae [12] = assay: Antibacterial activity against Klebsiella pneumoniae BAA 2473 assessed as inhibition of bacterial growth incubated for 16 to 20 hrs; assay type: functional; conditions: time 16-20 hrs
Salmonella typhimurium [13] = assay: Bactericidal activity against Salmonella typhimurium DT104 assessed as inhibition of bacterial growth incubated for 16 to 20 hrs in presence of human serum; assay type: functional, Salmonella enterica subsp. enterica serovar Typhimurium; conditions: Salmonella enterica, time 16-20 hrs
Klebsiella pneumoniae [14] = assay: Antibacterial activity against Klebsiella pneumoniae 10692 assessed as inhibition of bacterial growth incubated for 16 to 20 hrs; assay type: functional; conditions: time 16-20 hrs
[15] = tested on: Staphylococcus haemolyticus; assay: Antibacterial activity against Staphylococcus haemolyticus 15237 assessed as inhibition of bacterial growth incubated for 16 to 20 hrs; assay type: functional; conditions: time 16-20 hrs
Rhizopus arrhizus [16] = assay: Antifungal activity against Rhizopus oryzae 34550 assessed as inhibition of fungal growth incubated for 16 to 20 hrs; assay type: functional; conditions: time 16-20 hrs
Rhizopus arrhizus [17] = assay: Fungicidal activity against Rhizopus oryzae 34550 assessed as inhibition of fungal growth incubated for 72 hrs; assay type: functional
Salmonella enterica [18] = assay: Antibacterial activity against Salmonella enterica 15455 assessed as inhibition of bacterial growth incubated for 16 to 20 hrs; assay type: functional; conditions: time 16-20 hrs
Enterococcus faecalis [19] = assay: Bactericidal activity against Enterococcus faecalis 10066 assessed as inhibition of bacterial growth incubated for 16 to 20 hrs; assay type: functional; conditions: time 16-20 hrs
Salmonella enterica [20] = assay: Antibacterial activity against Salmonella enterica 15455 assessed as inhibition of bacterial growth incubated for 16 to 20 hrs in presence of human serum; assay type: functional; conditions: time 16-20 hrs
Escherichia coli [21] = assay: Bactericidal activity against Escherichia coli 10675 assessed as inhibition of bacterial growth incubated for 16 to 20 hrs in presence of human serum; assay type: functional; conditions: time 16-20 hrs
Escherichia coli [22] = assay: Bactericidal activity against Escherichia coli 10675 assessed as inhibition of bacterial growth incubated for 16 to 20 hrs; assay type: functional; conditions: time 16-20 hrs
Acinetobacter baumannii [23] = assay: Bactericidal activity against Acinetobacter baumannii 10591 assessed as inhibition of bacterial growth incubated for 16 to 20 hrs in presence of human serum; assay type: functional; conditions: time 16-20 hrs
[24] = tested on: Staphylococcus haemolyticus; assay: Bactericidal activity against Staphylococcus haemolyticus 15237 assessed as inhibition of bacterial growth incubated for 16 to 20 hrs; assay type: functional; conditions: time 16-20 hrs
Vibrio vulnificus [25] = assay: Bactericidal activity against Vibrio vulnificus 204 assessed as inhibition of bacterial growth incubated for 16 to 20 hrs; assay type: functional; conditions: time 16-20 hrs
Salmonella enterica [26] = assay: Bactericidal activity against Salmonella enterica 15455 assessed as inhibition of bacterial growth incubated for 16 to 20 hrs in presence of human serum; assay type: functional; conditions: time 16-20 hrs
Klebsiella aerogenes [27] = assay: Antibacterial activity against Enterobacter aerogenes 15630 assessed as inhibition of bacterial growth incubated for 16 to 20 hrs; assay type: functional; conditions: time 16-20 hrs
Klebsiella pneumoniae [28] = assay: Bactericidal activity against Klebsiella pneumoniae TL 297 assessed as inhibition of bacterial growth incubated for 16 to 20 hrs in presence of human serum; assay type: functional; conditions: time 16-20 hrs
Klebsiella pneumoniae [29] = assay: Bactericidal activity against Klebsiella pneumoniae BAA 2473 assessed as inhibition of bacterial growth incubated for 16 to 20 hrs; assay type: functional; conditions: time 16-20 hrs
Klebsiella pneumoniae [30] = assay: Bactericidal activity against Klebsiella pneumoniae 10692 assessed as inhibition of bacterial growth incubated for 16 to 20 hrs; assay type: functional; conditions: time 16-20 hrs
Acinetobacter baumannii [31] = assay: Antibacterial activity against Acinetobacter baumannii 10591 assessed as inhibition of bacterial growth incubated for 16 to 20 hrs in presence of human serum; assay type: functional; conditions: time 16-20 hrs
Salmonella enterica [32] = assay: Bactericidal activity against Salmonella enterica 15455 assessed as inhibition of bacterial growth incubated for 16 to 20 hrs; assay type: functional; conditions: time 16-20 hrs
Salmonella typhimurium [33] = assay: Bactericidal activity against Salmonella typhimurium DT104 assessed as inhibition of bacterial growth incubated for 16 to 20 hrs; assay type: functional, Salmonella enterica subsp. enterica serovar Typhimurium; conditions: Salmonella enterica, time 16-20 hrs
Rhizopus arrhizus [34] = assay: Fungicidal activity against Rhizopus oryzae 34550 assessed as inhibition of fungal growth incubated for 16 to 20 hrs in presence of human serum; assay type: functional; conditions: time 16-20 hrs
Yersinia enterocolitica [35] = assay: Bactericidal activity against Yersinia enterocolitica 13999 assessed as inhibition of bacterial growth incubated for 16 to 20 hrs; assay type: functional; conditions: time 16-20 hrs
Acinetobacter baumannii [36] = assay: Bactericidal activity against Acinetobacter baumannii 10591 assessed as inhibition of bacterial growth incubated for 16 to 20 hrs; assay type: functional; conditions: time 16-20 hrs
Klebsiella oxytoca [37] = assay: Bactericidal activity against Klebsiella oxytoca 13985 assessed as inhibition of bacterial growth incubated for 16 to 20 hrs; assay type: functional; conditions: time 16-20 hrs
Klebsiella oxytoca [38] = assay: Antibacterial activity against Klebsiella oxytoca 13985 assessed as inhibition of bacterial growth incubated for 16 to 20 hrs; assay type: functional; conditions: time 16-20 hrs
Klebsiella pneumoniae [39] = assay: Antimicrobial activity against drug-resistant Klebsiella pneumoniae BAA 2473 infected in C57BL/6 mouse assessed as reduction in bacterial load at 5 mg/kg, po administered for 2 hrs and measured at 24 hrs; assay type: functional, organism-based; conditions: time 26.0 hrs
Salmonella typhimurium [40] = assay: Antibacterial activity against Salmonella typhimurium DT104 assessed as inhibition of bacterial growth incubated for 16 to 20 hrs in presence of human serum; assay type: functional, Salmonella enterica subsp. enterica serovar Typhimurium; conditions: Salmonella enterica, time 16-20 hrs
Klebsiella oxytoca [41] = assay: Bactericidal activity against Klebsiella oxytoca 13985 assessed as inhibition of bacterial growth incubated for 16 to 20 hrs in presence of human serum; assay type: functional; conditions: time 16-20 hrs
Enterococcus faecium [42] = assay: Antibacterial activity against Enterococcus faecium 10067 assessed as inhibition of bacterial growth incubated for 16 to 20 hrs; assay type: functional; conditions: time 16-20 hrs
Klebsiella oxytoca [43] = assay: Antibacterial activity against Klebsiella oxytoca 13985 assessed as inhibition of bacterial growth incubated for 16 to 20 hrs in presence of human serum; assay type: functional; conditions: time 16-20 hrs
Staphylococcus aureus [44] = assay: Bactericidal activity against Staphylococcus aureus 10780 assessed as inhibition of bacterial growth incubated for 16 to 20 hrs; assay type: functional; conditions: time 16-20 hrs
Enterococcus faecium [45] = assay: Antibacterial activity against Enterococcus faecium 10067 assessed as inhibition of bacterial growth incubated for 16 to 20 hrs in presence of human serum; assay type: functional; conditions: time 16-20 hrs
Enterococcus faecium [46] = assay: Bactericidal activity against Enterococcus faecium 10067 assessed as inhibition of bacterial growth incubated for 16 to 20 hrs; assay type: functional; conditions: time 16-20 hrs
Yersinia enterocolitica [47] = assay: Antibacterial activity against Yersinia enterocolitica 13999 assessed as inhibition of bacterial growth incubated for 16 to 20 hrs; assay type: functional; conditions: time 16-20 hrs
Klebsiella aerogenes [48] = assay: Bactericidal activity against Enterobacter aerogenes 15630 assessed as inhibition of bacterial growth incubated for 16 to 20 hrs; assay type: functional; conditions: time 16-20 hrs
Staphylococcus aureus [49] = assay: Antibacterial activity against Staphylococcus aureus 10780 assessed as inhibition of bacterial growth incubated for 16 to 20 hrs; assay type: functional; conditions: time 16-20 hrs
Vibrio vulnificus [50] = assay: Antibacterial activity against Vibrio vulnificus 204 assessed as inhibition of bacterial growth incubated for 16 to 20 hrs in presence of human serum; assay type: functional; conditions: time 16-20 hrs

For `C[C@H]1c2cccc(O)c2C(=O)C2=C(O)[C@]3(O)C(=O)C(C(N)=O)=C(O)[C@@H](N(C)C)[C@@H]3[C@@H](O)[C@@H]21` [DOXYCYCLINE ANHYDROUS], the MIC (Escherichia coli [1]) was 3.13 µM (≈ 1.39 µg/mL), the MBC (Enterococcus faecium [2]) was 12.5 µM and the MBC (Vibrio vulnificus [3]) was < 0.39 µM. The MIC (Klebsiella pneumoniae [4]) was 25 µM, the MIC (Pseudomonas aeruginosa [5]) was 6.25 µM and the MIC (Escherichia coli [6]) was 3.13 µM. For the same molecule, the MIC (Enterococcus faecalis [7]) was < 1.56 µM, the MIC (Acinetobacter baumannii [8]) was 0.78 µM (≈ 0.347 µg/mL) and the MIC (Vibrio vulnificus [9]) was < 0.39 µM. The MBC (Pseudomonas aeruginosa [10]) was 6.25 µM, the MIC (Salmonella typhimurium [11]) was 6.25 µM (≈ 2.78 µg/mL) and the MIC (Klebsiella pneumoniae [12]) was 50 µM (≈ 22.2 µg/mL). For the same molecule, the MBC (Salmonella typhimurium [13]) was > 100 µM, the MIC (Klebsiella pneumoniae [14]) was 3.13 µM (≈ 1.39 µg/mL) and the MIC [15] was < 1.56 µM. For the same molecule, the MIC (Rhizopus arrhizus [16]) was > 100 µM, the MFC (Rhizopus arrhizus [17]) was > 100 µM and the MIC (Salmonella enterica [18]) was 3.13 µM (≈ 1.39 µg/mL). It also gave an MBC (Enterococcus faecalis [19]) of 6.25 µM (≈ 2.78 µg/mL), an MIC (Salmonella enterica [20]) of 6.25 µM and an MBC (Escherichia coli [21]) of 100 µM. The MBC (Escherichia coli [22]) was 100 µM (≈ 44.4 µg/mL), the MBC (Acinetobacter baumannii [23]) was 6.25 µM and the MBC [24] was < 1.56 µM. For the same molecule, the MBC (Vibrio vulnificus [25]) was < 0.39 µM, the MBC (Salmonella enterica [26]) was > 100 µM and the MIC (Klebsiella aerogenes [27]) was 3.13 µM (≈ 1.39 µg/mL). It also gave an MBC (Klebsiella pneumoniae [28]) of 25 µM, an MBC (Klebsiella pneumoniae [29]) of 100 µM (≈ 44.4 µg/mL) and an MBC (Klebsiella pneumoniae [30]) of 100 µM (≈ 44.4 µg/mL). For the same molecule, the MIC (Acinetobacter baumannii [31]) was 1.56 µM, the MBC (Salmonella enterica [32]) was > 100 µM and the MBC (Salmonella typhimurium [33]) was 6.25 µM (≈ 2.78 µg/mL). The MFC (Rhizopus arrhizus [34]) was 12.5 µM, the MBC (Yersinia enterocolitica [35]) was < 1.56 µM and the MBC (Acinetobacter baumannii [36]) was 1.56 µM (≈ 0.693 µg/mL). The MBC (Klebsiella oxytoca [37]) was 200 µM (≈ 88.9 µg/mL), the MIC (Klebsiella oxytoca [38]) was 6.25 µM (≈ 2.78 µg/mL) and the Activity (Klebsiella pneumoniae [39]) was “inactive”. It also gave an MIC (Salmonella typhimurium [40]) of 12.5 µM, an MBC (Klebsiella oxytoca [41]) of 100 µM and an MIC (Enterococcus faecium [42]) of 0.2 µM (≈ 0.0889 µg/mL). For the same molecule, the MIC (Klebsiella oxytoca [43]) was 6.25 µM, the MBC (Staphylococcus aureus [44]) was 12.5 µM (≈ 5.56 µg/mL) and the MIC (Enterococcus faecium [45]) was 0.39 µM. For the same molecule, the MBC (Enterococcus faecium [46]) was 6.25 µM (≈ 2.78 µg/mL), the MIC (Yersinia enterocolitica [47]) was 3.13 µM (≈ 1.39 µg/mL) and the MBC (Klebsiella aerogenes [48]) was 200 µM (≈ 88.9 µg/mL). The MIC (Staphylococcus aureus [49]) was 0.2 µM (≈ 0.0889 µg/mL) and the MIC (Vibrio vulnificus [50]) was < 0.39 µM.

Reference: ChEMBL document CHEMBL5505958, “Optimization of sequence and chiral content enhances therapeutic potential of tilapia piscidin peptides” (Eur J Med Chem, 2024)
